Laboratory results as given in paper PMC12362796, “Bilirubin Targeting WNK1 to Alleviate NLRP3‐Mediated Neuroinflammation” (Advanced Science, 2025).

How the values were obtained:
full-length hWNK1 = target: T1, full-length hWNK1 (Homo sapiens, UniProt Q9H4A3); test: MicroScale Thermophoresis (MST), EGFP-tagged full-length WNK1 in HEK293T cell lysates; format: binding; settings: 15 min incubation, lysates of EGFP-WNK1 expressing HEK293T cells
T1 construct: We overexpressed full‐length WNK1 fused with Green Fluorescent Protein (GFP); expressed in transfected cells; host or cells: HEK293T
Method: To validate the direct binding of bilirubin to WNK1, we performed a Microscale Thermophoresis (MST) analysis, which assesses the binding capacity of a compound by measuring the movement of proteins over a microscopic temperature gradient.^[ [26], [27] ^] We overexpressed full‐length WNK1 fused with Green Fluorescent Protein (GFP) in HEK‐293 cells, incubated the lysates with bilirubin at varying dilutions, and subjected them to precise MST measurements in capillaries. […] Furthermore, biliverdin, a structurally similar intermediate product generated before bilirubin formation, was used as a control.
All WNK1 clones were derived from the original untagged hWNK1 cDNA (NM_018979), which was modified and subcloned into the pcDNA3.1, referred to as “full‐length WNK1” throughout this study. Truncated constructs, including 1–190aa, 191–491aa, 1–491aa, and 491–2382aa fragments, were generated by PCR using the full‐length template and subsequently ligated into linearized pcDNA3.1 vectors. WNK2 was obtained from Addgene Plasmid #24569, and WNK3 was obtained from Addgene Plasmid #81723. Both were subjected to base modifications and cloned into pcDNA3.1. The WNK4 clone was derived from hWNK4 cDNA (NM_032387.5), modified, and subcloned into the pCMV3‐C‐GFPSpark vector.
In HEK293T cells, proteins tagged with green fluorescent protein (GFP) were expressed. […]

[1] = tested on: OSR1 and SPAK phosphorylation; test: Western blotting of OSR1 and SPAK phosphorylation in hippocampus; format: cell-based, mouse
Source text: (§1) To further investigate the impact of bilirubin on WNK1 kinase activity, we generated hippocampal neuron‐specific Wnk1 knockout mice. Given that conventional Wnk1 knockout mice are embryonically lethal, we employed the CRISPR/Cas9 method to create mice carrying the floxed Wnk1 gene. Then we crossed Thy1‐Cre mice with Wnk1^flox/flox mice to generate hippocampal neuron‐specific Wnk1 knockout mice. We examined the effects of bilirubin on the phosphorylation of WNK1 downstream targets, Ste20‐related proline alanine‐rich kinase (SPAK), and oxidative stress‐responsive kinase 1 (OSR1), in the hippocampus of Wnk1^flox/flox and Wnk1^flox/flox,Thy1‐Cre mice. Upon bilirubin treatment, phosphorylation of OSR1 and SPAK was elevated in the hippocampus of Wnk1^flox/flox mice. […] These findings indicate that the effect of bilirubin on OSR1 and SPAK phosphorylation is WNK1‐dependent (Figure 4B). To rule out the potential effects of osmolarity on the phosphorylation of WNK1, OSR1, and SPAK, we measured the osmolarity of different bilirubin concentrations.
Cells or tissues were lysed by grinding in RIPA buffer (cat. no. PC101; Epizyme Biotech) supplemented with a protease inhibitor cocktail (cat. no. 5872S; Cell Signaling Technology) at 4 °C. […] The total protein concentration was determined using the Pierce BCA Protein Assay Kit (cat. no. 23 225, Thermo Fisher Scientific). […]

HEK 293T cell line = test: MQAE intracellular chloride measurement in HEK 293T cell line; format: cell-based, human; settings: lacking KCC2 expression
Source text: Since bilirubin‐induced activation of WNK1 kinase activity increases [Cl⁻]i in neurons, we sought to elucidate the downstream effector proteins of WNK1 that are involved in this process. Neuronal [Cl⁻]i is primarily regulated by the Cl⁻‐K⁺ symporter KCC2, with additional modulation by factors such as the Na⁺‐K⁺‐Cl⁻ co‐transporter NKCC1, GABAA receptors, and glycine receptors (GlyR), all of which contribute to [Cl⁻]i homeostasis.^[ [31] ^] To investigate the mechanism underlying bilirubin‐induced changes in [Cl⁻]i, we selectively targeted these proteins using pharmacological inhibitors (VU0463271 for KCC2, bumetanide for NKCC1, bicuculline for GABAA receptors, and strychnine for GlyR) and activated KCC2 using CLP257.^[ [35], [36] ^] […] The bilirubin‐induced effect on [Cl⁻]i was not observed in primary astrocytes (Figure S15A,B, Supporting Information) or the HEK 293T cell line (Figure S15C, Supporting Information), both of which lacked KCC2 expression (Figure S16A,B, Supporting Information), further confirming that the effects of bilirubin and WNK1 on [Cl⁻]i elevation are dependent on KCC2.
Intracellular chloride concentration ([Cl⁻]i) was measured using the MQAE fluorescent dye (Life Technologies) following established protocols (Zhang, Lee et al. 2015). […]

[2] = Osmolarity of different bilirubin concentrations; format: physicochemical; settings: low concentrations of bilirubin
Source text: as §1

MRGPRs = target: MRGPRs; set-up: method as in PMID 37390966, PMID 30657454; settings: peripheral sensory neurons; cited from earlier work

T1 sequence (Q9H4A3 whole entry, the tested form may be a part): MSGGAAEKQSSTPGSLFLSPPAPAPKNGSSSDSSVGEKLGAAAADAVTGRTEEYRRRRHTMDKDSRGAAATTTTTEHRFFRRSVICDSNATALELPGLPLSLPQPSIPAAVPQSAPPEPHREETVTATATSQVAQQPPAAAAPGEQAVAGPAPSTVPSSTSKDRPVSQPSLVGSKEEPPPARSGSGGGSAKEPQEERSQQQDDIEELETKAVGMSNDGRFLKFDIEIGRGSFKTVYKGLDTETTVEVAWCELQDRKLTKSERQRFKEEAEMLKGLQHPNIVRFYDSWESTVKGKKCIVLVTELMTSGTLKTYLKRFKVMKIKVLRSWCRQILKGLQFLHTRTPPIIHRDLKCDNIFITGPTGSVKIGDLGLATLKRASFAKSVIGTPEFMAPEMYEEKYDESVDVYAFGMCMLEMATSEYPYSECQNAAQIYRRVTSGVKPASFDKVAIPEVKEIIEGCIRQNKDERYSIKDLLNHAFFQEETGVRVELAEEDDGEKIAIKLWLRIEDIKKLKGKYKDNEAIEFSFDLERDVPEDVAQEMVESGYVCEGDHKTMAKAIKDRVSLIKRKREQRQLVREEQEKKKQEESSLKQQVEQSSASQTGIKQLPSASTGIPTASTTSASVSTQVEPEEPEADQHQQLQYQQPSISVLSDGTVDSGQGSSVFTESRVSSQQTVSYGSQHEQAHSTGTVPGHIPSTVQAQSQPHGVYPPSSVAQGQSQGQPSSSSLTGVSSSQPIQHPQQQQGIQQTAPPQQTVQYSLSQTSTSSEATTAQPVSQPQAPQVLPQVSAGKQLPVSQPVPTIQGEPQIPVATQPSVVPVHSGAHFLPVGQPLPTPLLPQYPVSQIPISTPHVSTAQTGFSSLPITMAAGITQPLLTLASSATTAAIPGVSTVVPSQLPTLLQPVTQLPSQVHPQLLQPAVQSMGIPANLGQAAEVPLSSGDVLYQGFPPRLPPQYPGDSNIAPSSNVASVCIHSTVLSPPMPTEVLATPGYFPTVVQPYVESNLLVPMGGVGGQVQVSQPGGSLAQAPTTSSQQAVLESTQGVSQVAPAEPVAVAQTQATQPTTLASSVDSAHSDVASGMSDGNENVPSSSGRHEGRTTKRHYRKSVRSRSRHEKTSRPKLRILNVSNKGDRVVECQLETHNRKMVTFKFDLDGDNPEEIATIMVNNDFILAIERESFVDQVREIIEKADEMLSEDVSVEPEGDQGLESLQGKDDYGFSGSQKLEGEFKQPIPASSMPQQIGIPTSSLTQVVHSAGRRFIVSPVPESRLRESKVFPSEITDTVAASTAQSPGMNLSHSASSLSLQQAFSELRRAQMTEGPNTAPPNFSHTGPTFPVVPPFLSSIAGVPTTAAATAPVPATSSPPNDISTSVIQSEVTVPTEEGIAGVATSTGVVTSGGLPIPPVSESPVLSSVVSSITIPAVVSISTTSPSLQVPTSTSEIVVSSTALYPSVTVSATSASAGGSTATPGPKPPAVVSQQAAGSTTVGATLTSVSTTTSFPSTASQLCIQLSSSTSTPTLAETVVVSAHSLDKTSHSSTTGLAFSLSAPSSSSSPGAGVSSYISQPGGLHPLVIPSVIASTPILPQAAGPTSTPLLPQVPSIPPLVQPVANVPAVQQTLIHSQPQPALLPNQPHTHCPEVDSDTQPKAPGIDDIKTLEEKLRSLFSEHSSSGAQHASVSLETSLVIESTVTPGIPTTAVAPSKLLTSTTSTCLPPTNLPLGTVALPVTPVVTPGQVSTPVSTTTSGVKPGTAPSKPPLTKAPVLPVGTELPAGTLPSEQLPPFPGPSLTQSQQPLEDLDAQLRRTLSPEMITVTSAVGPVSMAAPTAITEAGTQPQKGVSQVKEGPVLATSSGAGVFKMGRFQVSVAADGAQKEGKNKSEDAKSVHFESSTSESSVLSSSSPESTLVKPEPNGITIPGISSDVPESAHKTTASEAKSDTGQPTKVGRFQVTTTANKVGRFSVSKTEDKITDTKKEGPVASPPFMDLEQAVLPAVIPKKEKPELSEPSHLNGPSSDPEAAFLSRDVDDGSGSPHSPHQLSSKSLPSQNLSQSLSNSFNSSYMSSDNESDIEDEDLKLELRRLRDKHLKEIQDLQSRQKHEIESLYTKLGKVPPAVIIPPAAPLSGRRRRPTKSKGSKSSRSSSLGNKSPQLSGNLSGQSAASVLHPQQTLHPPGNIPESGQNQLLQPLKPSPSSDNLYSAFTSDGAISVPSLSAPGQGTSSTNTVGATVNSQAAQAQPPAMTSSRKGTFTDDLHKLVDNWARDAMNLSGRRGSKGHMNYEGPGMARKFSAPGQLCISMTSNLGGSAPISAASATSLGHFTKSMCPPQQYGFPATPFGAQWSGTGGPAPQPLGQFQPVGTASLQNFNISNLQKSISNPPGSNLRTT

C=CC1=C(C)/C(=C/c2[nH]c(Cc3[nH]c(/C=C4\NC(=O)C(C)=C4C=C)c(C)c3CCC(=O)O)c(CCC(=O)O)c2C)NC1=O [bilirubin, Bilirubin]
Kd (full-length hWNK1): 0.0672 µM
phosphorylation of OSR1 and SPAK ([1]; hippocampus of Wnk1flox/flox mice): elevated
phosphorylation of OSR1 and SPAK ([1]; hippocampus of Wnk1flox/flox,Thy1-Cre mice): minimal impact
bilirubin-induced effect on [Cl−]i (HEK 293T cell line): not observed
osmolarity [2]: didn't change the osmolarity
Kd (MRGPRs): 54.4 to 92.9 µM
